Results published in patent US20250281462A1, “THERAPEUTICALLY EFFECTIVE ORAL ADMINISTRATION OF A 2 ARYLBENZIMIDAZOLE” (Tranquis Therapeutics, Inc., priority 2021, published 2025).
Where “and” joins values, the source holds several entries; their conditions need not be identical. Identical values can stand only once. Like-named read-outs stand apart in the source and are kept apart here. Blank lines part the entries; values can stand above or below the compound they belong to.

Columns and labels:
[1] = Plasma and brain concentrations after single oral dose in rats; format: in vivo; conditions: both sexes, Sprague-Dawley, rat, rats plasma, suspension; for AUC(0-t): plasma, po
Experimental: Both male (n=3) and female (n=3) Sprague-Dawley rats were administered a single dose of TQS-168 by oral gavage at 50, 150, or 500 mg/kg of TQS-168. TQS-168 was prepared as a suspension with 0.5% methylcellulose in PBS.
Plasma samples were collected at 30, 60, 120, 240, and 1440 minutes after administration. Brain samples were collected in some animals at 60, 240, and 1440 minutes after the single oral dose of TQS-168 at 500 mg/kg. Samples were processed for LC-MS analysis of TQS-168 concentrations.
Cmax and AUC0-t values from the plasma tissues were calculated using PKSolver (Compute Methods Programs Biomed. 2010 September; 99(3):306-14. doi: 10.1016j.cmpb.2010.01.007. Epub 2010 Feb. 21) with the underlying data plotted FIG. 12a.

[2] = clinical; conditions: male, human, in vivo, po; for half-life: T1/2
[3] = human, in vivo, 120 mg
[4] = human, in vivo

Structure (SMILES): CC(C)(C)c1ccc(-c2nc3ccccc3[nH]2)cc1 [TQS-168, 2-(4-tert-butylphenyl)-1H-benzimidazole]
AUC(0-t) ([1]; 50 mg/kg, 50 mg/kg single oral dose): 833 ng·h/mL | AUC(0-t) ([1]; 150 mg/kg, 150 mg/kg single oral dose): 1830 ng·h/mL | AUC(0-t) ([1]; 500 mg/kg, 500 mg/kg single oral dose): 3330 ng·h/mL | Cmax ([1]; 50 mg/kg single oral dose): 60 ng/mL | Cmax ([1]; 150 mg/kg single oral dose): 120 ng/mL | Cmax ([1]; 500 mg/kg single oral dose): 170 ng/mL

AUC(0-t) ([2]; 60 mg, AUC(0-24)): 383 ng·h/mL | AUC(0-inf) ([2]; 60 mg): 410 ng·h/mL | AUC(0-t) ([2]; 60 mg, AUC(0-last)): 401 ng·h/mL | Cmax ([2]; 60 mg): 65.3 ng/mL and 250 nM | half-life ([2]; 60 mg): 293 min | Tmax ([2]; 60 mg): 2.5 h | AUC(0-t) ([2]; 90 mg, AUC(0-24)): 1170 ng·h/mL | AUC(0-inf) ([2]; 90 mg): 1200 ng·h/mL | Cmax ([2]; 90 mg): 214 ng/mL and 800 nM | half-life ([2]; 180 mg): 546 min | Tmax ([2]; 180 mg): 1.5 h | AUC(0-t) ([2]; 270 mg, AUC(0-24)): 4250 ng·h/mL | AUC(0-inf) ([2]; 270 mg): 4950 ng·h/mL | AUC(0-t) ([2]; 270 mg, AUC(0-last)): 4760 ng·h/mL | Cmax ([2]; 270 mg): 2330 nM | half-life ([2]; 270 mg): 624 min | Tmax ([2]; 270 mg): 2 h | AUC(0-t) ([2]; 540 mg, AUC(0-24)): 10800 ng·h/mL | AUC(0-inf) ([2]; 540 mg): 12700 ng·h/mL | AUC(0-t) ([2]; 540 mg, AUC(0-last)): 12000 ng·h/mL | Cmax ([2]; 540 mg): 1110 ng/mL and 4.17 µM | half-life ([2]; 540 mg): 678 min | Tmax ([2]; 540 mg): 4 h | AR AUC [3]: 1.46 | AR Cmax [3]: 1.03 | T1/2 ([3]; male): 10.2 h | Tmax ([3]; male): 1.75 h | accumulation ratio based on AUC(0-tau) ([3]; male, 7 days): 1.46 | accumulation ratio based on Cmax ([3]; male, 7 days): 1.30 | MPR AUC(0-inf) ([4]; po, 60 mg): 5.63 | MPR Cmax ([4]; po, 60 mg): 2.44 | MPR AUC(0-inf) ([4]; po, 90 mg): 6.16 | MPR Cmax ([4]; po, 90 mg): 1.93 | MPR AUC(0-inf) ([4]; po, 270 mg): 5.92 | MPR Cmax ([4]; po, 270 mg): 2.62 | MPR AUC(0-inf) ([4]; po, 540 mg): 7.91 | MPR Cmax ([4]; po, 540 mg): 3.43 | Frel AUC(0-inf) ([4]; male, 180 mg): 63.6% | Frel AUC(0-last) ([4]; male, 180 mg): 63.5% | Frel Cmax ([4]; male, 180 mg): 64.9% | AUC(0-24) ([4]; male, po, 60 mg): 383 ng·h/mL | AUC(0-inf) ([4]; male, po, 60 mg): 410 ng·h/mL | Cmax ([4]; male, po, 60 mg): 65.3 ng/mL | T1/2 ([4]; male, po, 60 mg): 4.89 h | Tmax ([4]; male, po, 60 mg): 2.50 h | AUC(0-24) ([4]; male, po, 90 mg): 1170 ng·h/mL | AUC(0-inf) ([4]; male, po, 90 mg): 1200 ng·h/mL | AUC(0-last) ([4]; male, po, 90 mg): 1190 ng·h/mL | Cmax ([4]; male, po, 90 mg): 214 ng/mL | T1/2 ([4]; male, po, 90 mg): 4.79 h | Tmax ([4]; male, po, 90 mg): 1.25 h | AUC(0-24) ([4]; male, po, 270 mg): 4250 ng·h/mL | AUC(0-inf) ([4]; male, po, 270 mg): 4950 ng·h/mL | Cmax ([4]; male, po, 270 mg): 621 ng/mL | T1/2 ([4]; male, po, 270 mg): 10.4 h | Tmax ([4]; male, po, 270 mg): 2.00 h | AUC(0-24) ([4]; male, po, 540 mg): 10800 ng·h/mL | AUC(0-inf) ([4]; male, po, 540 mg): 12700 ng·h/mL | Cmax ([4]; male, po, 540 mg): 1110 ng/mL | T1/2 ([4]; male, po, 540 mg): 11.3 h | Tmax ([4]; male, po, 540 mg): 4.00 h
Structure (SMILES): CC(C)(C)c1ccc(-c2nc3cc(O)ccc3[nH]2)cc1 [TQS-621]
